Literature values, collected in US6432967B1 (Mayo Foundation for Medical Education & Research, priority 1995, dated 2002).

Settings: in vivo

- fecal excretion: approximately 25%
Compound: Nc1ccc(O)c(C(=O)O)c1 [5-ASA, 5-aminosalicylate]
